# According to PubChem BioAssay AID1963866 (Molecular Pharmacology Branch, DTP, NCI, 2024):
# pIC50: −log10 of the molar value.
# System: PDC KRAS tumor spheroids with HUVEC/MSC, viability
# Assay: Anticancer human tumor 349418-098-R-PDC patient-derived lung adenocarcinoma cell line growth inhibition [KRAS2]
# Conditions: for pIC50: curve of first compound; for viability, T/C: stronger effect = lower value
# How it was run: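 KRAS-mutant tumor cells were grown as spheroids with HUVEC endothelial cells and human MSCs as stroma. Targeted agents were tested alone and with KRAS pathway inhibitors. Doses started at or near clinical Cmax, or 10 microM, descending half-log.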
# [1] = second compound 0.1 µM, first compound 0.0316 µM
# [2] = second compound 0.1 µM, first compound 0.1 µM
# [3] = second compound 0.1 µM, first compound 0.316 µM
# [4] = second compound 0.1 µM, first compound 1 µM
# [5] = second compound 0.316 µM, first compound 0.0316 µM
# [6] = second compound 0.316 µM, first compound 0.1 µM
# [7] = second compound 0.316 µM, first compound 0.316 µM
# [8] = second compound 0.316 µM, first compound 1 µM
# [9] = second compound 1 µM, first compound 0.0316 µM
# [10] = second compound 1 µM, first compound 0.1 µM
# [11] = second compound 1 µM, first compound 0.316 µM
# [12] = second compound 1 µM, first compound 1 µM
# [13] = second compound 3.16 µM, first compound 0.0316 µM
# [14] = second compound 3.16 µM, first compound 0.1 µM
# [15] = second compound 3.16 µM, first compound 0.316 µM
# [16] = second compound 3.16 µM, first compound 1 µM
# [17] = second compound 10 µM, first compound 0.0316 µM
# [18] = second compound 10 µM, first compound 0.1 µM
# [19] = second compound 10 µM, first compound 0.316 µM
# [20] = second compound 10 µM, first compound 1 µM
# 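Note: spheroids exposed to compounds for seven days before readout.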
SMILES,pIC50 (second compound 0.1 µM),pIC50 (second compound 0.316 µM),pIC50 (second compound 1 µM),pIC50 (second compound 3.16 µM),pIC50 (second compound 10 µM),"viability, T/C [1]","viability, T/C [2]","viability, T/C [3]","viability, T/C [4]","viability, T/C [5]","viability, T/C [6]","viability, T/C [7]","viability, T/C [8]","viability, T/C [9]","viability, T/C [10]","viability, T/C [11]","viability, T/C [12]","viability, T/C [13]","viability, T/C [14]","viability, T/C [15]",also measured
CC(C)NCC(C(=O)N1CCN(c2ncnc3c2C(C)CC3O)CC1)c1ccc(Cl)cc1 (stereo not given) + C=CC(=O)N1CCN(c2nc(=O)n(-c3c(C)ccnc3C(C)C)c3nc(-c4c(O)cccc4F)c(F)cc23)C(C)C1,6.54,6.56,6.74,6.97,> 7.50,101%,79.6%,44.7%,26.6%,87.2%,80.5%,40.6%,27%,89.1%,73.1%,28.9%,15.6%,61.1%,52.9%,23.3%,"viability, T/C (second compound 0.1 µM, first compound 3.16 µM): 14.2%; viability, T/C (second compound 0.1 µM, first compound 10 µM): 7.87%; viability, T/C (second compound 0.316 µM, first compound 3.16 µM): 14.1%; viability, T/C (second compound 0.316 µM, first compound 10 µM): 6.33%; viability, T/C (second compound 1 µM, first compound 3.16 µM): 12.7%; viability, T/C (second compound 1 µM, first compound 10 µM): 5.98%; viability, T/C [16]: 15.2%; viability, T/C (second compound 3.16 µM, first compound 3.16 µM): 9.31%; viability, T/C (second compound 3.16 µM, first compound 10 µM): 5.92%; viability, T/C [17]: 35.1%; viability, T/C [18]: 18.2%; viability, T/C [19]: 15.9%; viability, T/C [20]: 9.76%; viability, T/C (second compound 10 µM, first compound 3.16 µM): 7.72%; viability, T/C (second compound 10 µM, first compound 10 µM): 5.23%"
CCN1CCN(Cc2ccc(Nc3ncc(F)c(-c4cc(F)c5nc(C)n(C(C)C)c5c4)n3)nc2)CC1 + C=CC(=O)N1CCN(c2nc(=O)n(-c3c(C)ccnc3C(C)C)c3nc(-c4c(O)cccc4F)c(F)cc23)C(C)C1,8.17,8.12,8.13,8.35,> 8.50,21.8%,18%,15.4%,4.22%,20.9%,19.5%,14.6%,4.52%,21.7%,15%,15.7%,2.9%,18.5%,18.4%,16.6%,"viability, T/C (second compound 0.1 µM, first compound 0.00316 µM): 71.8%; viability, T/C (second compound 0.1 µM, first compound 0.01 µM): 37.4%; viability, T/C (second compound 0.316 µM, first compound 0.00316 µM): 76.3%; viability, T/C (second compound 0.316 µM, first compound 0.01 µM): 41.9%; viability, T/C (second compound 1 µM, first compound 0.00316 µM): 75.9%; viability, T/C (second compound 1 µM, first compound 0.01 µM): 40.6%; viability, T/C (second compound 3.16 µM, first compound 0.00316 µM): 55.4%; viability, T/C (second compound 3.16 µM, first compound 0.01 µM): 39.6%; viability, T/C [16]: 2.48%; viability, T/C (second compound 10 µM, first compound 0.00316 µM): 25.3%; viability, T/C (second compound 10 µM, first compound 0.01 µM): 14.2%; viability, T/C [17]: 12.8%; viability, T/C [18]: 8.96%; viability, T/C [19]: 8.17%; viability, T/C [20]: 0.93%"
